In patent US20090162351A1, “Transdiscal administration of inhibitors of p38 MAP kinase” (DePuy Spine, Inc., priority 2007, published 2009):
Values after ≈ are worked out from the molar mass of the structure shown. Like-named read-outs stand apart in the source and are kept apart here.

Columns and labels:
[1] = tested on: bovine chondrocyte pellets / ARC tissues stimulated with IL-1β; assay: Chondrocyte pellet / ARC culture model: GAG degradation assay; format: cell-based; details: at 5 μM, 7.5 ng/ml IL-1, five days
human cancer cell lines = assay: Cell proliferation in culture; format: cell-based
[2] = tested on: bovine chondrocyte pellets / ARC tissues stimulated with IL-1β; assay: Chondrocyte pellet / ARC culture model: GAG degradation assay; format: cell-based; details: Bos taurus, Chondrocyte; at 5 μM; read-out: GAG Release (inhibition), Pellet Assay
Text: A chondrocyte pellet culture model was developed for in vitro high throughput screening of therapeutic compounds for inhibition of IL-1β-stimulated matrix degradation. The chondrocyte pellet culture model can be used to detect various potential therapeutic compounds effective in blocking different processes caused by IL-1β stimulation. For example, IL-1β stimulation results in increased glycosaminoglycan (GAG) degradation, prostaglandin E2 (PGE2) synthesis and total nitrite/nitrate production. Compounds with different mechanisms of action may inhibit the increase of one or two or all three of these parameters. For this reason, screening by, for example, measuring only GAG release would be limited to detection of a specific class of inhibitors and may not detect compounds with diversified mechanisms of function which may be involved in inhibition of the IL-1 stimulated inflammatory process. The development of the chondrocyte pellet culture assay system in a 96-well plate made possible large-scale screening of potential therapeutic compounds with different mechanisms of action.
(§1) Calf articular cartilage was obtained from the knee joints of eight to twelve month old animals and was processed within twenty-four hours after sacrifice. After removal of muscle and ligament, the cartilage was kept moist using phosphate buffer solution (PBS) to prevent tissue dehydration, and was aseptically peeled off from subchondral bone with a scalpel, and the cartilage pieces were further minced into smaller pieces (˜0.3-0.5×˜0.2-0.5 cm cubes). […] Chondrocytes were then enzymatically isolated from the tissue by incubation for overnight at 37° C. with gentle agitation in 0.2% collagenase in Dulbecco's modified eagle media (DMEM). After removal of tissue debris by filtration through cell strainer and the residual collagenase by 3× wash in PBS, cells were finally resuspended at a density of 2.5×10^6 cells/ml in chondrocyte medium. A 1 ml aliquot of the cell suspension was dispensed into either a 15 ml Falcon centrifuge tube or a 96 deep-well plate and centrifuged at 2000×g for five minutes. The chondrocyte pellets were incubated at 37° C. in a humidified atmosphere of 5% CO2 for two to three weeks with a medium change every other day.
(§2) As an alternative to using calf articular cartilage, a commercial Aliginate Recovered Chondrocytes (ARC) system was also used (Articular Engineering, LLC (Northbrook, Ill.)). Use of the commercial system cut down on labor and time in producing chondrocyte pellet. This system produced cartilaginous tissue in vitro using bovine chondrocytes. The first step consisted of culturing chondrocytes in alginate under conditions optimal for the formation of a cell-associated matrix (CM). The second step allowed these cells with their CM, after recovery, to rapidly form and become integrated into a solid mass of cartilage on a porous insert within two weeks.
This tissue is rich in cells surrounded by a cell-associated matrix that is degraded rapidly when the cells are exposed to IL-1. ARC tissues in 3 mm punches at delivery were first dispensed into a 96 deep-well plate, one punch per well, for compound treatment. The subsequent procedures were the same as those used for the chondrocyte pellets.
(§3) Chondrocyte pellets were washed once with 1 ml of Chondrocyte Stimulation Medium and equilibrated in the same medium at room temperature for fifteen to thirty minutes. Compounds were dissolved in H2O, Ethanol or dimethyl sulfoxide (DMSO) (10^−2 M) according to suppliers' instructions and further diluted with Chondrocyte Stimulation Medium to the required concentrations. DMSO concentrations in the culture media should not exceed 1%; this concentration of DMSO has no effect on cartilage proteoglycan metabolism in response to cytokines.
The pellets were first treated with compounds at desired concentrations at 37° C. for one hour and then incubated for three to five days in the absence or presence of 10 ng/ml of IL-1β. […]

Water solubility = format: physicochemical
CDK1 = CDK1 (Homo sapiens, UniProt P06493); assay: CDK1 inhibition; format: biochemical
Sequence of CDK1 (P06493 whole entry, species assumed): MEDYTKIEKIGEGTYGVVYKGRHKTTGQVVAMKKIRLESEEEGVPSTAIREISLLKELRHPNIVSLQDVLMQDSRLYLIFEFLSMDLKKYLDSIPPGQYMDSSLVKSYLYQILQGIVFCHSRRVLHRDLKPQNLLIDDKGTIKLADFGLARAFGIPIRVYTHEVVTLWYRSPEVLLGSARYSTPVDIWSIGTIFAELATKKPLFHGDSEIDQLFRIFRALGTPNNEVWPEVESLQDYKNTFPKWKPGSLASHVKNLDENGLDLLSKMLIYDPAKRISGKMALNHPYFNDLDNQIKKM
Sequence of CDK1 (P14635 whole entry partner, species assumed): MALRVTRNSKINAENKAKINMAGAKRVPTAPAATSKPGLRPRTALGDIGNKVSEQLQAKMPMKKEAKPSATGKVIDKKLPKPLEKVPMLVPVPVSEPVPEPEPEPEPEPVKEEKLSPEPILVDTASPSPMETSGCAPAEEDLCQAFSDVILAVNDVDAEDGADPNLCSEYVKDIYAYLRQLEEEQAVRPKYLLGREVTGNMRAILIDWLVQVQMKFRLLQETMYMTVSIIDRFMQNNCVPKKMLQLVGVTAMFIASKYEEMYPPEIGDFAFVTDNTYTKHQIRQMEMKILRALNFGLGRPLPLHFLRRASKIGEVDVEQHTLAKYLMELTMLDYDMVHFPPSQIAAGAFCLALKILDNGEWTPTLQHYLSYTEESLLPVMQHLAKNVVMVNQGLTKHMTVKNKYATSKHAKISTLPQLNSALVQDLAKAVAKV

[3] = tested on: IL-1β-stimulated NO production in bovine chondrocyte pellets / ARC tissues; assay: Chondrocyte pellet / ARC culture model: total nitrite and nitrate assay; format: cell-based; details: at 5 μM
Text: as §1, §2, §3
(§4) The pellets were first treated with compounds at desired concentrations at 37° C. for one hour and then incubated for three to five days in the absence or presence of 10 ng/ml of IL-1β. At the end of the incubation, media and pellets were harvested and frozen for further analysis. Pellets were also fixed as needed in 4% (w/v) paraformaldehyde in PBS for histology analysis.
(§5) Nitrate/Nitrite levels were measured using the Griess reaction (Green L. C. et al., “Analysis of Nitrate, Nitrite, and [15N]nitrate in Biological Fluids,” Anal. Biochem. 126: 131-138 (1982)) with a Nitrate/Nitrite Colorimetric Assay Kit (Cayman Chemicals), the contents of which are incorporated herein by reference. The assay involved a simple two-step process. The first step involved conversion of nitrate in 50 μl of culture medium to nitrite utilizing nitrate reductase in a reaction volume of 100 μl at room temperature for two hours. The second step involved the addition of 50 μl of both Griess Reagent 1 and 2, which converted nitrite into a deep purple azo compound in ten minutes. Photometric measurement of the absorbance at 540 or 550 nm due to this azo chromophore accurately determined nitrite concentration. This assay kit cannot be used for RPMI (Roswell Park Memorial Institute) derived tissue culture medium due to interference with the colorimetric reaction.
To characterize the relative efficacies among different p38 MAP kinase inhibitors, dose-response curves were generated for both PGE2 and NO assays. […] After one hour of treatment, ARCs were stimulated with or without 7.5 ng/ml IL-1β and continued to incubate for five days before assay. […]

chondrocytes = format: cell-based
Method: The LDH activity was determined calorimetrically in an enzymatic test based on the conversion of lactic acid to pyruvate in the presence of chromagenic substrate tetrazolium salt INT that was reduced to formazan.

[4] = tested on: IL-1β-stimulated PGE2 synthesis in bovine chondrocyte pellets / ARC tissues; assay: Chondrocyte pellet / ARC culture model: Prostaglandin E2 assay; format: cell-based
Text: as §1, §2, §3, §4
(§6) Prostaglandin E2 (PGE2) was measured with a STAT-Prostaglandin E2 EIA ELISA kit (Cayman Biochemicals). This assay is based on the competition between PGE2 from 50 μl samples and a PGE2-alkaline phosphatase conjugate for a limited amount of PGE2 monoclonal antibody in a reaction volume of 150 μl at room temperature for one hour. The antibody-PGE2 complex bound to a goat polyclonal anti-mouse IgG that had been previously attached to the well. After washing to remove any unbound reagents, para-nitrophenyl phosphate (pNPP) was added to the well. The product of this enzymatic reaction absorbs strongly at 412 nm. Because of the large range in response to IL-1β and other cytokines, PGE2 values were converted to log scale prior to doing t-tests.
To characterize the relative efficacies among different p38 MAP kinase inhibitors, dose-response curves were generated for both PGE2 and NO assays. […] After one hour of treatment, ARCs were stimulated with or without 7.5 ng/ml IL-1β and continued to incubate for five days before assay. The IL-1β-stimulated PGE2 synthesis or NO production was first calculated by subtraction of PGE2/NO levels in the absence of IL-1β from that in the presence of IL-1β. […]

[5] = tested on: human tumor xenograft models; assay: Human tumor xenograft models; format: in vivo; details: single agent
[6] = tested on: cytokine-stimulated NO production in human ARC tissues; assay: Human ARC tissues: NO production; format: cell-based
Method: as §5
(§7) ® infliximab is a monoclonal antibody against human TNFα. To test whether […]® could modulate cytokine-stimulated responses in chondrocytes, human chondrocyte pellets were first tested for an optimal concentration for cytokine stimulation. Human ARC (i.e., ARCs generated using human chondrocytes) tissues were treated with various concentrations of either TNF or IL-1 for four and five days. The culture media was collected for measurement of GAG content as described above. Other assays were performed as described above. Cytokine dosage at 5 ng/ml and treatment for five days gave a reasonable treatment window, yet was not too challenging for compound efficacy (FIG. 4).
(§8) Human ARC tissues were then treated with various concentrations of […]® in the presence or absence of either 10 ng/ml of TNFα or 5 ng/ml of IL-1β for four or five days.
The efficacy of a monoclonal antibody (mAb) against human IL-6 in inhibition of proteoglycan degradation, NO production and PGE2 synthesis on human ARC tissues stimulated with IL-6 was also tested. […]

[7] = tested on: cytokine-stimulated PGE2 synthesis in human ARC tissues; assay: Human ARC tissues: PGE2 synthesis; format: cell-based; details: for PGE2 Inhibition, Pellet Assay: TNFα stimulated responses
Method: as §6, §7, §8
The efficacy of a monoclonal antibody (mAb) against human IL-6 in inhibition of proteoglycan degradation, NO production and PGE2 synthesis on human ARC tissues stimulated with IL-6 was also tested. Human ARC tissue were treated with 12.5, 25 and 250 ng/ml of IL-6 mAb diluted into chondrocyte stimulation medium. After one hour of treatment at 37° C., ARCs were stimulated with or without 25 ng/ml IL-6, 250 ng/ml IL-6 soluble receptor (IL-6SR) or IL-6 (25 ng/ml)+L-6SR (250 ng/ml) and incubated for five days before the culture media were harvested for assays.

[8] = tested on: human ARC tissues (human chondrocytes) stimulated with TNFα, IL-1β or IL-6 + IL-6SR; assay: Human ARC tissues: GAG release; format: cell-based
Method: Glycosaminoglycan (GAG) levels in the culture media were determined by measuring the amount of polyanionic material reacting with 1,9-dimethylmethylene blue (DME) as detected by absorbance at 525 nm, using shark chondroitin sulfate as a standard. The DME blue dye-binding solution was prepared by dissolving 16 mg of DME blue in a solution containing 0.304% glycine, 0.23% sodium chloride (NaCl), 9.5 mM hydrochloric acid (HCl), pH=3.0 with absorbance at 525 equal to 0.31. Proteoglycans and proteoglycan metabolites in chondrocyte pellet were released by digesting the pellet with 125 μg/ml of papain in 0.1 M PBS, pH 6.0, 5 mM cysteine, 5 mM ethylene-diamine-tetra-acetic acid disodium salt (Na2EDTA) at 50° C. for overnight. Results are reported as either micrograms of GAG per milliliter or percent of total GAG released into culture medium.
as §7, §8
The efficacy of a monoclonal antibody (mAb) against human IL-6 in inhibition of proteoglycan degradation, NO production and PGE2 synthesis on human ARC tissues stimulated with IL-6 was also tested. Human ARC tissue were treated with 12.5, 25 and 250 ng/ml of IL-6 mAb diluted into chondrocyte stimulation medium. […]

[9] = in vivo; cited from earlier work
[10] = 10 ng/ml TNFα, four or five days
[11] = at 1 ng/ml, TNFα stimulated responses

Molecule: Nc1nc(Nc2ccc(S(N)(=O)=O)cc2)nn1C(=O)c1c(F)cccc1F [JNJ 7706621, 4-[5-Amino-1-(2,6-difluoro-benzoyl)-1H-[1,2,4]triazol-3-ylamino]-benzenesulfonamide]
- GAG release (in words) [1]: completely blocked
- cell cycle effects (in words) (human cancer cell lines): induced G2M arrest, endoreduplication and apoptosis
- IC50 (human cancer cell lines; Homo sapiens, in 9 cell lines, read-out: inhibits cell proliferation in culture, IC50): 337 ± 123 nM
- inhibition at 5 µM [2]: 100%
- solubility (Water solubility; at pH 7.4): 17 µg/mL (≈ 43.1 µM)
- solubility (Water solubility; water, simulated gastric fluid, at pH 2, read-out: solubility): 6 µg/mL (≈ 15.2 µM)
- IC50 (CDK1): 9 nM
- inhibition at 5 µM ([3]; Bos taurus, Chondrocyte): 100%
- NO production (in words) ([3]; ARC tissues, 7.5 ng/ml IL-1, five days): completely blocked
- cytotoxicity to chondrocytes, LDH (in words) (chondrocytes): little toxicity
- PGE2 Inhibition, Pellet Assay (in words) ([4]; Table 3B): No effect
- PGE2 synthesis (in words) ([4]; at 5 μM, ARC tissues, 7.5 ng/ml IL-1, five days): little effect
- antitumor activity (in words) [5]: single agent antitumor activity

Molecule: REMICADE®: monoclonal antibody against human TNFα
- IL-1β stimulated responses: NO production (in words) ([6]; 5 ng/ml IL-1β): little effect
- TNFα-induced NO production (in words) [6, 10]: strongly inhibited
- NO Inhibition, Pellet Assay [6, 11]: 100% at
- IL-1β stimulated responses: PGE2 synthesis (in words) ([7]; 5 ng/ml IL-1β): little effect
- TNFα-induced PGE2 synthesis (in words) [7, 10]: strongly inhibited
- PGE2 Inhibition, Pellet Assay ([7]; at 1 ng/ml): 50% at 1 ng/ml
- PGE2 Inhibition, Pellet Assay ([7]; at 10 ng/ml): 100% at
- IL-1β stimulated responses: GAG release (in words) ([8]; 5 ng/ml IL-1β): little effect
- TNFα-induced GAG release (in words) [8, 10]: strongly inhibited
- GAG Release (inhibition), Pellet Assay [8, 11]: 100% at 1 ng/ml
- half-life when administered systemically [9]: about 1 week
